Measured values as given in US20250127778A1, “CANCER IMMUNOTHERAPY COMPOSITION CONTAINING INTERACTION INHIBITOR OF STING AND TRIM29 AS ACTIVE INGREDIENT” (SPARK BIOPHARMA, INC, priority 2021, published 2025).

Key:
[1] = test system: phosphorylation of downstream signaling proteins TBK1 and IRF3; test: Western blotting of STING sub-immune signaling pathway activation; type: cell-based; conditions: in combination with cGAMP; FIG. 7
Procedure: First, the A431 cell line was seeded in a transparent 12-well plate and cultured for one day. Thereafter, the cells were treated with the compounds of Formulas 1 to 6, respectively, and then cultured for additional 24 hours. Finally, after supernatant culture medium of the cells was removed, the remaining supernatant was diluted and removed with PBS (phosphate buffer saline) to prepare a Western blotting sample. All procedures for preparing Western blotting sample were performed at 4° C. […] The protein concentration of the supernatant was measured by using the Micro BCA™ protein assay kit (ThermoFisher) according to the protocol of the manufacturer. […] The treated samples were analyzed by SDS-PAGE, then transferred to a PVDF membrane, and cultured in a TBST solution containing 4% BSA for 30 minutes. […] Finally, after four TBST washing processes, the solution was developed with an ECL (enhanced chemiluminescence) prime solution of Amersham, the chemical luminescence signal was measured by using ChemiDoc MP of Bio-Rad Laboratories, Inc., the obtained results were quantified by using the ImageLab 6.0 program, and the results were plotted by using the Prism 8.0 program. […]

CD8+ T cells = test: T cell death analysis (Annexin V/7-AAD) of CD8+ T cells; type: cell-based; conditions: alone or in combination with cGAMP, 24 hours; FIG. 21
Procedure: CD8^+ T cells were obtained from the lymph nodes of C57BL/6 mice and separated by using MACS. CD8^+ T cells were activated on plates pre-coated with 1 μg/mL anti-CD3 and 0.5 μg/mL of anti-CD28 in the presence of 5 ng/ml of IL-2. After incubation for 24 hours in a 5% CO2 incubator at 37° C., activated CD8^+ T cells were treated with cGAMP and/or the compound of Formula 1 in various concentrations and incubated for additional 24 hours. The cells were harvested and stained with Annexin V/7-AAD to observe cell death. Data shown refer to at least three independent experiments.

[2] = test system: primary tumor and secondary tumor; test: Primary and secondary tumor model for anticancer immune system construction; type: in vivo, mouse; conditions: FIG. 30
From the text: It was verified whether, under the treatment of cGAMP and the compound of Formula 1 in combination, in addition to the results of increasing the antigen presentation efficacy that were confirmed in FIGS. 18 to 21, the anticancer immune system was constructed throughout the organism also in the animal model, so that activated cytotoxic T cells were able to remove cancer cells in other locations to which drugs are not injected.

[3] = combination with cGAMP compared with single administration of cGAMP

For `COc1ccc(CC2=CN(c3ccc(C(=O)NC[C@H]4CCCO4)cc3[N+](=O)[O-])[C@H](C(C)C)C(=O)N2Cc2ccc(O)cc2)cc1` [Formula 1, 4-((R)-4-(4-hydroxybenzyl)-2-isopropyl-5-(4-methoxybenzyl)-3-oxo-3,4-dihydropyrazin-1 (2H)-yl)-3-nitro-N-(((R)-tetrahydrofuran-2-yl)methyl)benzamide], the “degree of phosphorylation of TBK1 and IRF3” value [1] was “further increased”, the “death of cytotoxic T cells” value (CD8+ T cells) was “did not induce or promote the death of cytotoxic T cells” and the “final tumor mass of primary tumor” value [2, 3] was “reduced”. The primary tumor growth [2, 3] was “inhibited” and the “tumor death in secondary carcinomas” value ([2]; secondary tumor not directly injected) was “tumor death also effectively occurred”.
